Source: US8247211B2, “Glycopeptide antibiotics” (American Cyanamid Company, priority 2001, dated 2012)
Values after ≈ are worked out from the molar mass of the structure shown.

What was measured:
Test in all cases: In vitro antibacterial evaluation: minimum inhibitory concentration (MIC), broth dilution method
Format in all cases: cell-based
Details in all cases: 18 hours at 35° C.
Enterococcus sp. = test system: Enterococcus sp.
Summary of the method: (§1)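 NCCLS M7-A2 broth dilution with Mueller-Hinton II, testing 64-0.06 μg/mL antibiotic against 5×10^5 CFU/mL inocula. Test strains include recent methicillin-, penicillin- or vancomycin-resistant clinical isolates. MIC is the lowest concentration preventing growth.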

Escherichia coli = test system: Escherichia coli
Summary of the method: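 Values are minimum inhibitory concentrations, meaning the smallest antibiotic concentration that stops growth of the organism. They come from broth dilution in Muller-Hinton II […] per NCCLS guidance (M7-A2), using 5×10^5 CFU/mL and concentrations from 64 to 0.06 μg/mL.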

Staphylococcus sp. = test system: Staphylococcus sp.
Summary of the method: as §1

Streptococcus sp. = test system: Streptococcus sp.
Summary of the method: as §1

[1] = broth dilution, inoculum 5×10^5 CFU/mL

`COc1ccc(COCC2OC(OC3C(CO)OC(Oc4ccc(CC5NC(=O)C(C(C)c6ccccc6)NC(=O)CNC(=O)C(CO)NC(=O)C(C(O)C6CNC(=N)N6C6OC(CO)C(O)C(O)C6O)NC(=O)C(C(O)C6CNC(=N)N6)NC5=O)cc4)C(O)C3O)C(O)C(O)C2O)cc1F` (stereo not shown) [Example 237] was tested, and the “MIC Enterococcus avium (GC 4558)” value (Enterococcus sp.; Enterococcus avium (GC 4558)) was 16 µg/mL (≈ 11.2 µM), the “MIC Enterococcus faecalis (ATCC 29212)” value (Enterococcus sp.; Enterococcus faecalis (ATCC 29212)) was 16 µg/mL (≈ 11.2 µM) and the “MIC Enterococcus faecalis (GC 2242)” value (Enterococcus sp.; Enterococcus faecalis (GC 2242)) was 16 µg/mL (≈ 11.2 µM). The “MIC Enterococcus faecalis (GC 2691)” value (Enterococcus sp.; Enterococcus faecalis (GC 2691)) was 16 µg/mL (≈ 11.2 µM), the “MIC Enterococcus faecalis (GC 3059)” value (Enterococcus sp.; Enterococcus faecalis (GC 3059)) was 32 µg/mL (≈ 22.3 µM) and the “MIC Enterococcus faecalis (GC 4552)” value (Enterococcus sp.; Enterococcus faecalis (GC 4552)) was 16 µg/mL (≈ 11.2 µM). The “MIC Enterococcus faecalis (GC 4553)” value (Enterococcus sp.; Enterococcus faecalis (GC 4553)) was 16 µg/mL (≈ 11.2 µM), the “MIC Enterococcus faecalis (GC 4554)” value (Enterococcus sp.; Enterococcus faecalis (GC 4554)) was 32 µg/mL (≈ 22.3 µM) and the “MIC Enterococcus faecalis (GC 6189)” value (Enterococcus sp.; Enterococcus faecalis (GC 6189)) was 16 µg/mL (≈ 11.2 µM). The “MIC Enterococcus faecium (GC 2243)” value (Enterococcus sp.; Enterococcus faecium (GC 2243)) was 16 µg/mL (≈ 11.2 µM), the “MIC Enterococcus faecium (GC 4556)” value (Enterococcus sp.; Enterococcus faecium (GC 4556)) was 16 µg/mL (≈ 11.2 µM) and the “MIC Enterococcus faecium (GC 4557)” value (Enterococcus sp.; Enterococcus faecium (GC 4557)) was 4 µg/mL (≈ 2.79 µM). The “MIC Enterococcus faecalis (GC 2242)” value (Enterococcus sp.; [1]) was 16 µg/mL (≈ 11.2 µM), the “MIC Enterococcus faecalis (GC 2691)” value (Enterococcus sp.; [1]) was 16 µg/mL (≈ 11.2 µM) and the “MIC Enterococcus faecalis (GC 3059)” value (Enterococcus sp.; [1]) was 32 µg/mL (≈ 22.3 µM). The “MIC Escherichia coli (ATCC 25922)” value (Escherichia coli; Escherichia coli (ATCC 25922)) was 64 µg/mL (≈ 44.6 µM), the “MIC Escherichia coli (GC 4559)” value (Escherichia coli; Escherichia coli (GC 4559)) was 64 µg/mL (≈ 44.6 µM) and the “MIC Escherichia coli (GC 4560)” value (Escherichia coli; Escherichia coli (GC 4560)) was 1 µg/mL (≈ 0.698 µM). The “MIC Coagulase Negative Staphylococcus (GC 4547)” value (Staphylococcus sp.; Coagulase Negative Staphylococcus (GC 4547)) was 2 µg/mL (≈ 1.4 µM), the “MIC Coagulase Negative Staphylococcus (GC 4548)” value (Staphylococcus sp.; Coagulase Negative Staphylococcus (GC 4548)) was 1 µg/mL (≈ 0.698 µM) and the “MIC Coagulase Negative Staphylococcus (GC 4549)” value (Staphylococcus sp.; Coagulase Negative Staphylococcus (GC 4549)) was 1 µg/mL (≈ 0.698 µM). The “MIC Coagulase Negative Staphylococcus (GC 4551)” value (Staphylococcus sp.; Coagulase Negative Staphylococcus (GC 4551)) was 4 µg/mL (≈ 2.79 µM), the “MIC Coagulase Negative Staphylococcus (GC 6257)” value (Staphylococcus sp.; Coagulase Negative Staphylococcus (GC 6257)) was 1 µg/mL (≈ 0.698 µM) and the “MIC Staphylococcus aureus (ATCC 29213)” value (Staphylococcus sp.; Staphylococcus aureus (ATCC 29213)) was 4 µg/mL (≈ 2.79 µM). The “MIC Staphylococcus aureus (GC 1131)” value (Staphylococcus sp.; Staphylococcus aureus (GC 1131)) was 4 µg/mL (≈ 2.79 µM), the “MIC Staphylococcus aureus (GC 3051)” value (Staphylococcus sp.; Staphylococcus aureus (GC 3051)) was 2 µg/mL (≈ 1.4 µM) and the “MIC Staphylococcus aureus (GC 3053)” value (Staphylococcus sp.; Staphylococcus aureus (GC 3053)) was 4 µg/mL (≈ 2.79 µM). The “MIC Staphylococcus aureus (GC 4541)” value (Staphylococcus sp.; Staphylococcus aureus (GC 4541)) was 2 µg/mL (≈ 1.4 µM), the “MIC Staphylococcus aureus (GC 4542)” value (Staphylococcus sp.; Staphylococcus aureus (GC 4542)) was 8 µg/mL (≈ 5.58 µM) and the “MIC Staphylococcus aureus (GC 4544)” value (Staphylococcus sp.; Staphylococcus aureus (GC 4544)) was 4 µg/mL (≈ 2.79 µM). For the same compound, the “MIC Staphylococcus aureus (GC 4545)” value (Staphylococcus sp.; Staphylococcus aureus (GC 4545)) was 2 µg/mL (≈ 1.4 µM), the “MIC Staphylococcus aureus-SMITH (GC 4543)” value (Staphylococcus sp.; Staphylococcus aureus-SMITH (GC 4543)) was 2 µg/mL (≈ 1.4 µM) and the “MIC Staphylococcus haemolyticus (GC 4546)” value (Staphylococcus sp.; Staphylococcus haemolyticus (GC 4546)) was 1 µg/mL (≈ 0.698 µM). The “MIC Streptococcus agalactiae (GC 4564)” value (Streptococcus sp.; Streptococcus agalactiae (GC 4564)) was 2 µg/mL (≈ 1.4 µM), the “MIC Streptococcus pneumoniae (ATCC 6301)” value (Streptococcus sp.; Streptococcus pneumoniae (ATCC 6301)) was 0.5 µg/mL (≈ 0.349 µM) and the “MIC Streptococcus pneumoniae (GC 1894)” value (Streptococcus sp.; Streptococcus pneumoniae (GC 1894)) was 0.25 µg/mL (≈ 0.174 µM). For the same compound, the “MIC Streptococcus pneumoniae (GC 4565)” value (Streptococcus sp.; Streptococcus pneumoniae (GC 4565)) was 0.5 µg/mL (≈ 0.349 µM), the “MIC Streptococcus pyogenes (GC 4563)” value (Streptococcus sp.; Streptococcus pyogenes (GC 4563)) was 1 µg/mL (≈ 0.698 µM) and the “MIC Streptococcus agalactiae (GC 4564)” value (Streptococcus sp.; [1]) was 2 µg/mL (≈ 1.4 µM). For the same compound, the “MIC Streptococcus pneumoniae (ATCC 6301)” value (Streptococcus sp.; [1]) was 0.5 µg/mL (≈ 0.349 µM), the “MIC Streptococcus pneumoniae (GC 1894)” value (Streptococcus sp.; [1]) was 0.25 µg/mL (≈ 0.174 µM) and the “MIC Streptococcus pneumoniae (GC 4565)” value (Streptococcus sp.; [1]) was 0.5 µg/mL (≈ 0.349 µM). The “MIC Streptococcus pyogenes (GC 4563)” value (Streptococcus sp.; [1]) was 1 µg/mL (≈ 0.698 µM).
